How the values were obtained:
[1] = Stability constant (log β) of ligand-metal complexes; type: binding; details: Log β110 (Th^4+) versus Log β110 (Eu^3+)
Description: Solution Thermodynamics. All titrant solutions were degassed by boiling for 1 h while being purged under Ar. Carbonate-free 0.1 M KOH was prepared from concentrate (J. T Baker Dilut-It) and was standardized by titrating against 0.1 M potassium hydrogen phthalate (99.95%, Sigma Aldrich). Solutions of 0.1 M HCl were similarly prepared and were standardized by titrating against TRIS (99.9%, J. T. Baker). The glass electrode (Metrohm—Micro Combi—response to [H+]) used for the pH measurements was calibrated at 25.0° C. and at an ionic strength of 0.1 M (KCl) before each potentiometric or spectrophotometric titration. The calibration data were analyzed using the program GLEE (Gans & O'Sullivan, Talanta, 2000, 51 (1): 33-37) to refine for the E° and slope. All thermodynamic measurements were conducted at 25.0° C., in 0.1 M KCl supporting electrolyte under positive Ar gas pressure. The automated titration system was controlled by an 867 pH Module (Metrohm). Two-milliliter Dosino 800 burets (Metrohm) dosed the titrant (0.1 M KOH or 0.1 M HCl) into the thermostated titration vessel (5-90 mL). UV-visible spectra were acquired with an Ocean Optics USB4000-UV-vis spectrometer equipped with a TP-300 dip probe (Ocean Optics; path length of 10 mm), fiber optics and a DH-2000 light source (deuterium and halogen lamps). The fully automated titration system and the UV-vis spectrophotometer were coordinated by LBNL titration system, a computer program developed in house.
Incremental Spectrophotometric Titrations. This method was used to determine the protonation constants of 3,4,3-LI(CAM) as well as the stability constants of its complexes formed with Eu(III), Zr(IV) and ^232Th(IV). The experimental titration setup is similar to previously described systems (Sturzbecher-Hoehne, et al., Radiochimica Acta., 2013, 101 (6): 359-366). For the 3,4,3-LI(CAM) protonation (and Eu(III)-3,4,3-LI(CAM) complexes), titrations were performed with an initial concentration of 50 μM of 3,4,3-LI(CAM) (and 50 μM of Eu(III)) resulting in absorbance values included between 0 and 1.0 throughout the titration. Typically, 9 mL of a sample containing 3,4,3-LI(CAM) (and Eu(III)) and the supporting electrolyte (KCl/HCl) were incrementally perturbed by addition of 0.025 mL of carbonate-free 0.1 M KOH followed by a time delay of 80 s. Buffering of the solution was ensured by the addition of 10 mM of HEPES, 10 mM of CHES and 10 mM of MES. Between 130 and 250 data points were collected per titration, each data point including a pH measurement and a UV-Vis spectrum (250-450 nm) over the pH range 1.5 to 12.0. All spectra were corrected for dilution before data fitting. The entire procedure (electrode calibrate, titration and data treatment) was performed independently five times for the protonation constants and four times for the Eu(III)-3,4,3-LI(CAM) complexes. For the Zr(IV) and Th(IV) complexes, titrations were performed similarly but in the presence of DTPA to avoid the formation of metal hydroxides at low pH, before the uptake by 3,4,3-LI(CAM). For each metal, three titrations were performed independently in the presence of 1.1 to 40 equivalents of DTPA.
Data Treatment. […] All metal and chelator concentrations were held at estimated values determined from the volume of standardized stock solutions. All species formed with 3,4,3-LI(CAM) were considered to have significant absorbance to be observed in the UV-vis spectra and were therefore included in the refinement process. […]

[2] = Extraction by HDEHP as a function of pH with hold-back reagent
Description: (§1) All liquid-liquid extractions were conducted using a 1:1 organic to aqueous phase ratio for a total volume of 1 mL. Samples were pH adjusted by HNO3 and prepared for a final concentration of 1.0 M sodium lactate, 40 mM of hold-back reagent (160 mM in the case of the HOPO monomer), and 2.0 M Na^+. The concentration of the trivalent f-element was dependent on the availability and radioactivity of the isotopes. The organic phase consisted of 0.5 M HDEHP in kerosene. All samples were incubated in a thermostatic shaker held at 28° C. and rocked at 280 rpm for 90 minutes. To ensure complete phase separation, samples were left overnight at room temperature to equilibrate. Radioactive samples were analyzed by liquid scintillation counting (LSC). The analytical protocol consisted of diluting 10 uL of radioactive sample into 10 mL of Ultima Gold™. Ultima Gold™ is a commercially available analytical reagent commonly used for LSC. The resulting analytical samples were shaken for 10 min prior to counting on a Perkin-Elmer Packard Tri-Carb instrument (model B4430).
(§2) Data was analyzed by the distribution ratio (Dm), separation factor (SFm1/m2) and extraction percentage (% Extraction) as defined by Equations (6), (7) and (8), respectively. Equation (8) uses concentrations of the metal in each phase since the aqueous: organic ratio was 1. Both the organic and aqueous phases were analyzed after liquid-liquid extraction and phase separation. These calculation methods rely on the assumptions that no metal (M) is lost to sorption or precipitation and that no volume variation occurred during the mass transfer between the aqueous and organic phases.
(§3) In FIG. 23, aqueous phase: [ligand]=40 mM, buffer sodium lactate/sodium nitrate. Organic phase: [HDEHP]=0.5 M, kerosene diluent. T=25° C. O/A=1, one contact. Initial metal concentrations: [Ac-225]=0.4 nM, [Am-243]=40.4 nM, or [Gd]=500 μM (spiked with Gd-153 for LSC measurements).

[3] = as above; remark: listed apart in the source
Description: as §1, §2, §3
as §3, with “17,” for “23,”, “nitrate, organic” for “nitrate. Organic”, “measurements). Separation factor=ratio M1/M2 in the final organic phase/ratio M1/M2 in the initial aqueous phase. […]” for “measurements).”

[4] = highest value reached, HDEHP/343HOPO-HNO3 system

With O=C(NCCCN(CCCCN(CCCNC(=O)c1cccc(=O)n1O)C(=O)c1cccc(=O)n1O)C(=O)c1cccc(=O)n1O)c1cccc(=O)n1O [3,4,3-LI(1,2-HOPO)] the “Δ log β” value [1] was 19.9, the “extraction of Am^3+” value ([2]; pH higher than 1, 40 mM ligand, 0.5 M HDEHP) was “No extraction” and the SFAc/Am [3, 4] was 130,000. The SFAc/Gd [3, 4] was 1,300,000, the SFAc/Am ([3]; pH 0.9 (±0.1)) was 3.99 * 10^2 and the SFAc/Am ([3]; pH 1.5 (±0.1)) was 9.06 * 10^3. The SFAc/Gd ([3]; pH 1.5 (±0.1)) was 6.55 * 10^2, the SFAc/Am ([3]; pH 3.5 (±0.1)) was 8.13 * 10^4 and the SFAc/Gd ([3]; pH 3.5 (±0.1)) was 4.61 * 10^5. The SFAc/Am ([3]; pH 4.0 (±0.1)) was 1.28 * 10^5, the SFAc/Gd ([3]; pH 4.0 (±0.1)) was 1.33 * 10^6 and the extraction of actinium ([3]; pH higher than 1.5, 40 mM ligand, 0.5 M HDEHP) was “quantitative extraction”. The SFAc/Pu ([3]; single step, initial Pu/Ac ratio ~10,000 mol/mol, 40 mM chelator, 0.5 M HDEHP) was “at least 1,000,000” and the “separation factor between Ac and relevant metal impurities” value ([3]; summary statement) was 10^6.
For O=C(O)CN(CCN(CC(=O)O)CC(=O)O)CCN(CC(=O)O)CC(=O)O [DTPA, Diethylenetriaminepentaacetic acid, reference compound], the “Δ log β” value [1] was 6.3, the “maximum metal extraction of Am(III)” value ([2]; around pH 1.5) was 78% and the “extraction of Am(III)” value ([2]; at pH 4) was “less than 10%”. For the same compound, the “Extraction of Gd(III)” value ([2]; until after pH 4) was “above 90%”, the SFAm/Ac ([3]; HDEHP/DTPA-HNO3 system) was “below 10” and the SFGd/Ac ([3]; HDEHP/DTPA-HNO3 system) was < 5,300. The “maximum metal extraction of Ac(III)” value ([3]; around pH 1.5) was 49%, the “extraction of Ac(III)” value ([3]; at pH 4) was “less than 10%” and the SFAc/Gd ([3]; pH 0.8 (±0.1)) was <10^−3. The SFAc/Am ([3]; pH 0.9 (±0.1)) was 5.83 * 10^−2, the SFAc/Am ([3]; pH 1.5 (±0.1)) was 2.70 * 10^−1 and the SFAc/Gd ([3]; pH 1.5 (±0.1)) was <10^−3. For the same compound, the SFAc/Am ([3]; pH 3.5 (±0.1)) was 6.86 * 10^−2, the SFAc/Gd ([3]; pH 3.5 (±0.1)) was <10^−3 and the SFAc/Am ([3]; pH 4.0 (±0.1)) was 1.11 * 10^−1. The SFAc/Gd ([3]; pH 4.0 (±0.1)) was <10^−3.
